Reference: PMC10408569, “Recruitment of hexahydroquinoline as anticancer scaffold targeting inhibition of wild and mutants EGFR (EGFR^WT, EGFR^T790M, and EGFR^L858R)” (Journal of Enzyme Inhibition and Medicinal Chemistry, 2023)

How the values were obtained:
SW-620 = experiment: NCI-60 anticancer screening (SRB); format: cell-based; conditions: Homo sapiens; SW-620, colon cancer; one dose 10 μM; read-out: Growth Inhibition Percentage (GI %)
SR = experiment: NCI-60 anticancer screening (SRB); format: cell-based; conditions: Homo sapiens, leukemia, one dose 10 μM, read-out: Growth Inhibition Percentage (GI %)
SK-MEL-5 = experiment: NCI-60 anticancer screening (SRB); format: cell-based; conditions: Homo sapiens; SK-MEL-5, melanoma; one dose 10 μM; read-out: Growth Inhibition Percentage (GI %)
HOP-62 = experiment: NCI-60 anticancer screening (SRB); format: cell-based; conditions: Homo sapiens; HOP-62, NSC lung cancer; one dose 10 μM; read-out: Growth Inhibition Percentage (GI %)
KM 12 = experiment: NCI-60 anticancer screening (SRB); format: cell-based; conditions: Homo sapiens, KM12; KM 12, colon cancer; one dose 10 μM; read-out: Growth Inhibition Percentage (GI %)
RXF 393 = experiment: NCI-60 anticancer screening (SRB); format: cell-based; conditions: Homo sapiens; RXF 393, renal cancer; one dose 10 μM; read-out: Growth Inhibition Percentage (GI %)
T-47D = experiment: NCI-60 anticancer screening (SRB); format: cell-based; conditions: Homo sapiens, T47D, breast cancer, one dose 10 μM, read-out: Growth Inhibition Percentage (GI %)
ACHN = experiment: NCI-60 anticancer screening (SRB); format: cell-based; conditions: Homo sapiens, renal cancer, one dose 10 μM, read-out: Growth Inhibition Percentage (GI %)
SK-OV-3 = experiment: NCI-60 anticancer screening (SRB); format: cell-based; conditions: Homo sapiens; SK-OV-3, ovarian cancer; one dose 10 μM; read-out: Growth Inhibition Percentage (GI %)
NCI 60 cancer cell lines = experiment: NCI-60 anticancer screening (SRB), whole panel; format: cell-based, human; conditions: mean across the NCI-60 panel; one dose 10 μM
NCI-H322M = experiment: NCI-60 anticancer screening (SRB); format: cell-based; conditions: Homo sapiens, NSC lung cancer, one dose 10 μM, read-out: Growth Inhibition Percentage (GI %)
RPMI-8226 = experiment: NCI-60 anticancer screening (SRB); format: cell-based; conditions: Homo sapiens; RPMI-8226, leukemia; one dose 10 μM; read-out: Growth Inhibition Percentage (GI %)
OVCAR-5 = experiment: NCI-60 anticancer screening (SRB); format: cell-based; conditions: Homo sapiens; OVCAR-5, ovarian cancer; one dose 10 μM; read-out: Growth Inhibition Percentage (GI %)
A549/ATCC = experiment: NCI-60 anticancer screening (SRB); format: cell-based; conditions: Homo sapiens; A549/ATCC, NSC lung cancer; one dose 10 μM; read-out: Growth Inhibition Percentage (GI %)
HCC-2998 = experiment: NCI-60 anticancer screening (SRB); format: cell-based; conditions: Homo sapiens; HCC-2998, colon cancer; one dose 10 μM; read-out: Growth Inhibition Percentage (GI %)
PC-3 = experiment: NCI-60 anticancer screening (SRB); format: cell-based; conditions: Homo sapiens; PC-3, prostate cancer; one dose 10 μM; read-out: Growth Inhibition Percentage (GI %)
SNB-19 = experiment: NCI-60 anticancer screening (SRB); format: cell-based; conditions: Homo sapiens; SNB-19, CNS cancer; one dose 10 μM; read-out: Growth Inhibition Percentage (GI %)
UACC-257 = experiment: NCI-60 anticancer screening (SRB); format: cell-based; conditions: Homo sapiens; UACC-257, melanoma; one dose 10 μM; read-out: Growth Inhibition Percentage (GI %)
NCI-H460 = experiment: NCI-60 anticancer screening (SRB); format: cell-based; conditions: Homo sapiens; NCI-H460, NSC lung cancer; one dose 10 μM; read-out: Growth Inhibition Percentage (GI %)
HCT-15 = experiment: NCI-60 anticancer screening (SRB); format: cell-based; conditions: Homo sapiens; HCT-15, colon cancer; one dose 10 μM; read-out: Growth Inhibition Percentage (GI %)
MDA-MB-231 = experiment: NCI-60 anticancer screening (SRB); format: cell-based; conditions: Homo sapiens; MDA-MB-231, breast cancer; one dose 10 μM; read-out: Growth Inhibition Percentage (GI %)
IGROV1 = experiment: NCI-60 anticancer screening (SRB); format: cell-based; conditions: Homo sapiens, IGROV-1; IGROV1, ovarian cancer; one dose 10 μM; read-out: Growth Inhibition Percentage (GI %)
SN 12C = experiment: NCI-60 anticancer screening (SRB); format: cell-based; conditions: Homo sapiens, SN12C; SN 12C, renal cancer; one dose 10 μM; read-out: Growth Inhibition Percentage (GI %)
HT29 = experiment: NCI-60 anticancer screening (SRB); format: cell-based; conditions: Homo sapiens, HT-29; HT29, colon cancer; one dose 10 μM; read-out: Growth Inhibition Percentage (GI %)
HCT-116 = experiment: NCI-60 anticancer screening (SRB); format: cell-based; conditions: Homo sapiens; HCT-116, colon cancer; one dose 10 μM; read-out: Growth Inhibition Percentage (GI %)
SF-539 = experiment: NCI-60 anticancer screening (SRB); format: cell-based; conditions: Homo sapiens; SF-539, CNS cancer; one dose 10 μM; read-out: Growth Inhibition Percentage (GI %)
MDA-MB-435 = experiment: NCI-60 anticancer screening (SRB); format: cell-based; conditions: Homo sapiens; MDA-MB-435, melanoma; one dose 10 μM; read-out: Growth Inhibition Percentage (GI %)

| Structure (SMILES) | inhibition at 10 µM (SW-620) [%] | inhibition at 10 µM (SR) [%] | inhibition at 10 µM (SK-MEL-5) [%] | inhibition at 10 µM (HOP-62) [%] | inhibition at 10 µM (KM 12) [%] | inhibition at 10 µM (RXF 393) [%] | inhibition at 10 µM (T-47D) [%] | inhibition at 10 µM (ACHN) [%] | inhibition at 10 µM (SK-OV-3) [%] | GI % mean (NCI 60 cancer cell lines) | inhibition at 10 µM (NCI-H322M) [%] | inhibition at 10 µM (RPMI-8226) [%] | inhibition at 10 µM (OVCAR-5) [%] | inhibition at 10 µM (A549/ATCC) [%] | inhibition at 10 µM (HCC-2998) [%] | inhibition at 10 µM (PC-3) [%] | inhibition at 10 µM (SNB-19) [%] | inhibition at 10 µM (UACC-257) [%] | inhibition at 10 µM (NCI-H460) [%] | inhibition at 10 µM (HCT-15) [%] | also measured |
| --- | --- | --- | --- | --- | --- | --- | --- | --- | --- | --- | --- | --- | --- | --- | --- | --- | --- | --- | --- | --- | --- |
| CCOC(=O)C1=C(N)N(c2ccc(C)cc2)C2=C(C(=O)CC(C)(C)C2)C1c1ccccn1 (racemic) [12b, (±)-Ethyl 2-amino-7,7-dimethyl-1–(4-methylphenyl)-5-oxo-1-phenyl-4-(pyrdin-2-yl)-1,4,5,6,7,8-hexahydroquinoline-3-carboxylate] | < 10 | < 10 | 13 | < 10 | < 10 | < 10 | < 10 | < 10 | < 10 | - ((-) = GI % mean less than 10) | < 10 | < 10 | < 10 | < 10 | < 10 | < 10 | < 10 | < 10 | < 10 | < 10 | inhibition at 10 µM (MDA-MB-231): 13%; inhibition at 10 µM (IGROV1): < 10%; inhibition at 10 µM (SN 12C): < 10%; inhibition at 10 µM (HT29): < 10%; inhibition at 10 µM (HCT-116): < 10%; inhibition at 10 µM (SF-539): < 10%; inhibition at 10 µM (MDA-MB-435): < 10% |
| CCOC(=O)C1=C(N)N(c2ccc(Cl)cc2)C2=C(C(=O)CC(C)(C)C2)C1c1ccccn1 (racemic) [12c, (±)-Ethyl 2-amino-1–(4-chlorophenyl)-7,7-dimethyl-5-oxo-4-(pyridine-2-yl)-1,4,5,6,7,8-hexahydroquinoline-3-carboxylate] | < 10 | < 10 | 13 | < 10 | < 10 | < 10 | < 10 | < 10 | < 10 | - ((-) = GI % mean less than 10) | < 10 | < 10 | < 10 | < 10 | < 10 | 19 | < 10 | < 10 | < 10 | 12 | inhibition at 10 µM (MDA-MB-231): < 10%; inhibition at 10 µM (IGROV1): < 10%; inhibition at 10 µM (SN 12C): < 10%; inhibition at 10 µM (HT29): 22%; inhibition at 10 µM (HCT-116): 13%; inhibition at 10 µM (SF-539): < 10%; inhibition at 10 µM (MDA-MB-435): < 10% |
| CCOC(=O)C1=C(N)N(c2ccccc2)C2=C(C(=O)CC(C)(C)C2)C1c1cccnc1 (racemic) [12d] | < 10 | < 10 | < 10 | < 10 | < 10 | < 10 | < 10 | < 10 | < 10 | - ((-) = GI % mean less than 10) | < 10 | < 10 | < 10 | < 10 | < 10 | < 10 | < 10 | < 10 | < 10 | < 10 | inhibition at 10 µM (MDA-MB-231): < 10%; inhibition at 10 µM (IGROV1): < 10%; inhibition at 10 µM (SN 12C): < 10%; inhibition at 10 µM (HT29): < 10%; inhibition at 10 µM (HCT-116): < 10%; inhibition at 10 µM (SF-539): < 10%; inhibition at 10 µM (MDA-MB-435): < 10% |
